Assay results reported in ChEMBL document CHEMBL5338801, “Carbohydrate Strengthens the Immunotherapeutic Effect of Small-Molecule PD-L1 Inhibitors” (J Med Chem, 2023).
Activity calls are given as the source filed them. The calls are words filed in the database; no cut-off is given here.

Assays:
[1] = Partition coefficient, logD of compound in 1-octanol and phosphate buffer at pH 7.4 incubated for 1 hr under shaking condition by HPLC analysis; type: physicochemical; conditions: 1-octanol/phosphate buffer, pH 7.4
[2] = Half life in CD-1 mouse at 5 mg/kg, ip measured upto 24 hrs by UPLC analysis; type: ADME, organism-based; conditions: in vivo
[3] = Half life in CD-1 mouse at 5 mg/kg, iv measured upto 24 hrs by UPLC analysis; type: ADME, organism-based; conditions: in vivo
[4] = Tmax in CD-1 mouse at 5 mg/kg, ip measured upto 24 hrs by UPLC analysis; type: ADME, organism-based; conditions: in vivo
[5] = Tmax in CD-1 mouse at 5 mg/kg, iv measured upto 24 hrs by UPLC analysis; type: ADME, organism-based; conditions: in vivo
[6] = Cmax in CD-1 mouse at 5 mg/kg, ip measured upto 24 hrs by UPLC analysis; type: ADME, organism-based; design: dose 5 mg/kg, time < 24 hrs, route ip; conditions: in vivo
[7] = Cmax in CD-1 mouse at 5 mg/kg, iv measured upto 24 hrs by UPLC analysis; type: ADME, organism-based; design: dose 5 mg/kg, time < 24 hrs, route iv; conditions: in vivo
[8] = AUClast in CD-1 mouse at 5 mg/kg, ip measured upto 24 hrs by UPLC analysis; type: ADME, organism-based; design: dose 5 mg/kg, time < 24 hrs, route ip; conditions: in vivo
[9] = AUClast in CD-1 mouse at 5 mg/kg, iv measured upto 24 hrs by UPLC analysis; type: ADME, organism-based; design: dose 5 mg/kg, time < 24 hrs, route iv; conditions: in vivo
[10] = Observed AUC infinity in CD-1 mouse at 5 mg/kg, ip measured upto 24 hrs by UPLC analysis; type: ADME, organism-based; design: dose 5 mg/kg, time < 24 hrs, route ip; conditions: in vivo
[11] = Observed AUC infinity in CD-1 mouse at 5 mg/kg, iv measured upto 24 hrs by UPLC analysis; type: ADME, organism-based; design: dose 5 mg/kg, time < 24 hrs, route iv; conditions: in vivo
[12] = Observed MRT infinity in CD-1 mouse at 5 mg/kg, ip measured upto 24 hrs by UPLC analysis; type: ADME, organism-based; conditions: in vivo
[13] = Observed MRT infinity in CD-1 mouse at 5 mg/kg, iv measured upto 24 hrs by UPLC analysis; type: ADME, organism-based; conditions: in vivo
[14] = Upregulation of IFN-gamma secretion in human CD4+ve Th cells cocultured with DC cells incubated for 120 hrs by ELISA; type: functional
[15] = target: T1, Programmed cell death protein 1/Programmed cell death 1 ligand 1 (Homo sapiens, UniProt Q9NZQ7); assay: Inhibition of human PD-1/PD-L1 interaction overexpressed in human HEK293T cells by flow cytometry analysis; type: cell-based
T1 sequence (Q15116 whole entry): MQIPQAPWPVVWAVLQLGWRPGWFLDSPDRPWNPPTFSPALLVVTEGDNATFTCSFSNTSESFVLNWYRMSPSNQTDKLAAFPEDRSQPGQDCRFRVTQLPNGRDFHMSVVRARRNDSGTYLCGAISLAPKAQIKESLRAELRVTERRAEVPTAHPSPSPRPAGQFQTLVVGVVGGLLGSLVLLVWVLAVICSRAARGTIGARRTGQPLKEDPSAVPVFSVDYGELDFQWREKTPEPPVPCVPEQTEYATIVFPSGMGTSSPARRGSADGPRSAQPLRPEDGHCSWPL
T1 sequence (Q9NZQ7 whole entry): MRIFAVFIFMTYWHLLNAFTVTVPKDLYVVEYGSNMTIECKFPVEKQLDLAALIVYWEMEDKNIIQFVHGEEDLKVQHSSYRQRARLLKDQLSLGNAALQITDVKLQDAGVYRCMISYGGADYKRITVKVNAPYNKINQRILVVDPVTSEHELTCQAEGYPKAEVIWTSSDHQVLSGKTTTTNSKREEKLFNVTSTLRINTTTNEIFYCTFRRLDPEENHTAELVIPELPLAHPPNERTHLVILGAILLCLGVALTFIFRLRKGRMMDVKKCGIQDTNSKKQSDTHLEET

[16] = system: Jurkat; assay: Cytotoxicity against human Jurkat T cells assessed as cell growth inhibition upto 30 uM incubated for 48 hrs by MTT assay; type: toxicity, cell-based
[17] = system: B16-F10; assay: Antitumor activity against mouse B16-F10 cells implanted in C57BL/6 mouse assessed as tumor growth inhibition at 100 mg/kg, po qd for 6 days and measured once a day for 7 days relative to control; type: functional; conditions: B16-F10, 168 h, time 7 day, read-out: TGI
[18] = system: B16-F10; assay: Antitumor activity against mouse B16-F10 cells implanted in C57BL/6 mouse assessed as tumor growth inhibition at 25 mg/kg, ip qd for 6 days and measured once a day for 7 days relative to control; type: functional; conditions: B16-F10, 168 h, time 7 day, read-out: TGI
[19] = system: B16-F10; assay: Antitumor activity against mouse B16-F10 cells implanted in C57BL/6 mouse assessed as tumor growth inhibition at 5 mg/kg, it qd for 6 days and measured once a day for 7 days relative to control; type: functional; conditions: B16-F10, 168 h, time 7 day, read-out: TGI
[20] = Toxicity in C57BL/6 mouse implanted with mouse B16-F10 cells assessed as weight loss at 100 mg/kg, po qd administered for 6 days measured after 7 days relative to control; type: organism-based; conditions: in vivo, 168 h, time 7 day
[21] = Toxicity in C57BL/6 mouse implanted with mouse B16-F10 cells assessed as weight loss at 25 mg/kg, ip qd administered for 6 days measured after 7 days relative to control; type: organism-based; conditions: in vivo, 168 h, time 7 day
[22] = Toxicity in C57BL/6 mouse implanted with mouse B16-F10 cells assessed as weight loss at 5 mg/kg, it qd administered for 6 days measured after 7 days relative to control; type: organism-based; conditions: in vivo, other, 168 h, time 7 day
[23] = system: CT26; assay: Antitumor activity against mouse CT26 cells implanted in Balb/c mouse assessed as tumor growth inhibition at 25 mg/kg, ip qd administered for 10 days measured every 2 days for 12 days relative to control; type: functional; conditions: CT26, 288 h, time 12 day, read-out: TGI
[24] = Toxicity in BALB/c mouse implanted with mouse CT26 cells assessed as weight loss at 25 mg/kg, ip qd administered for 10 days measured every 2 days for 12 days relative to control; type: organism-based; conditions: in vivo, 288 h, time 12 day
[25] = system: CT26; assay: Antitumor activity against mouse CT26 cells implanted Balb/c mouse assessed as increase CD4+ cell count at 25 mg/kg, ip qd administered for 10 days measured every 2 days for 12 days (reference value: 13.74 +/- 0.51%); type: functional; conditions: time 12 day
[26] = system: CT26; assay: Antitumor activity against mouse CT26 cells xenografted Balb/c mouse assessed as increase CD3+ CD8+ T cell count at 25 mg/kg, ip qd administered for 10 days measured every 2 days for 12 days (reference value: 5.77 +/- 0.32%); type: functional; conditions: time 12 day
[27] = system: CT26; assay: Antitumor activity against mouse CT26 cells xenografted Balb/c mouse assessed as granzyme B+ CD8+ T cell count at 25 mg/kg, ip qd administered for 10 days measured every 2 days for 12 days (reference value: 4.31 +/- 2.35%); type: functional; conditions: time 12 day
[28] = system: RKO; assay: Downregulation of human PD-L1 expressed in RKO cells incubated for 48 hrs; type: functional, cell-based
[29] = target: T1, Programmed cell death protein 1/Programmed cell death 1 ligand 1; assay: Inhibition of PD-1/PD-L1 (unknown origin) interaction incubated for 15 mins by HTRF assay; type: protein-complex assay
[30] = Half life in CD-1 mouse at 10 mg/kg, ig measured upto 24 hrs by UPLC analysis; type: ADME, organism-based; conditions: in vivo, po
[31] = Tmax in CD-1 mouse at 10 mg/kg, ig measured upto 24 hrs by UPLC analysis; type: ADME, organism-based; conditions: in vivo, po
[32] = Cmax in CD-1 mouse at 10 mg/kg, ig measured upto 24 hrs by UPLC analysis; type: ADME, organism-based; design: dose 10 mg/kg, time < 24 hrs, route ig; conditions: in vivo, po
[33] = AUClast in CD-1 mouse at 10 mg/kg, ig measured upto 24 hrs by UPLC analysis; type: ADME, organism-based; design: dose 10 mg/kg, time < 24 hrs, route ig; conditions: in vivo, po
[34] = Observed clearance in CD-1 mouse at 5 mg/kg, iv measured upto 24 hrs by UPLC analysis; type: ADME, organism-based; conditions: in vivo
[35] = Observed MRT infinity in CD-1 mouse at 10 mg/kg, ig measured upto 24 hrs by UPLC analysis; type: ADME, organism-based; conditions: in vivo, po
[36] = Volume of distribution at steady state in CD-1 mouse at 5 mg/kg, iv measured upto 24 hrs by UPLC analysis; type: ADME, organism-based; conditions: in vivo, read-out: Vdss
[37] = target: Programmed cell death 1 ligand 1 (Homo sapiens) (UniProt Q9NZQ7); assay: Induction of human PD-L1 degradation expressed in MC38 cells at 1 to 10 uM cocultured for 72 hrs by Western blotting analysis; type: cell-based; conditions: dose 1-10 µM
Sequence of Programmed cell death 1 ligand 1 (Homo sapiens) (Q9NZQ7 whole entry): as above

[38] = target: Programmed cell death 1 ligand 1 (Homo sapiens) (UniProt Q9NZQ7); assay: Inhibition of human PD-L1 overexpressed in RKO cells assessed as reduction in membrane activity cocultured for 48 hrs by flow cytometry analysis; type: cell-based
[39] = system: CT26; assay: Downregulation of mouse PD-L1 expressed in CT26 cells incubated for 48 hrs; type: functional, cell-based
[40] = system: CT26; assay: Downregulation of BET1 homologue in Balb/c mouse tumor implanted with mouse CT26 cells by LC/MS analysis; type: functional, cell-based
[41] = system: CT26; assay: Downregulation of immediate early response 3-interacting protein 1 in Balb/c mouse tumor implanted with mouse CT26 cells tumor by LC/MS analysis; type: functional, cell-based
[42] = system: CT26; assay: Downregulation of STING ER exit protein in Balb/c mouse tumor implanted with mouse CT26 cells by LC/MS analysis; type: functional, cell-based
[43] = system: CT26; assay: Downregulation of mitogen-activated protein kinase 15 in mouse CT26 cells implanted in Balb/c mouse tumor by LC/MS analysis; type: functional, cell-based
[44] = system: RKO; assay: Cytotoxicity against human RKO cells over expressing human PD-L1 at 50 uM; type: toxicity, cell-based
[45] = target: T1, Programmed cell death protein 1/Programmed cell death 1 ligand 1; assay: Inhibition of PD-1/His-tagged PD-L1 (unknown origin) protein-protein interaction incubated for 90 mins by AlphaLISA; type: protein-complex assay
[46] = system: Jurkat; assay: Cytotoxicity against human Jurkat cells assessed as cell growth inhibition incubated for 48 hrs by MTT assay; type: functional, cell-based
[47] = target: Programmed cell death protein 1/Programmed cell death 1 ligand 1 (Homo sapiens) (UniProt Q15116+Q9NZQ7); conditions: dose 300.0 nM, time 15.0 min

| Structure (SMILES) | logD at 1 h [1] | half-life [3] [h] | AUC(0-t) at 24 h [9] [ng·h/mL] | MRT inf [13] [h] | fold change (FC) [14] | IC50 [15] [nM] | Activity [16] | inhibition in vivo at 100 mg/kg [17] [%] | inhibition in vivo at 25 mg/kg [18] [%] | inhibition in vivo at 5 mg/kg [19] [%] | Activity [20] | Activity [21] | Activity [22] | inhibition in vivo at 25 mg/kg [23] [%] | Activity [24] | Activity [25] [%] | Activity [26] [%] | Activity [27] [%] | other results |
| --- | --- | --- | --- | --- | --- | --- | --- | --- | --- | --- | --- | --- | --- | --- | --- | --- | --- | --- | --- |
| COc1cc(OCc2cccc(-c3ccccc3)c2C)cc(OC)c1CNCCO[C@H]1O[C@H](CO)[C@@H](O)[C@H](O)[C@@H]1O | 1.78 | 3.78 | 1090 | 1.5 | 6.72 | 60.8 | Non-Toxic | 41.1 | 41.1 | 41.1 | Non-Toxic | Non-Toxic | Non-Toxic | 67.2 | Non-Toxic | 18.4 | 8.67 | 7.19 | half-life [2]: 5.83 h; Tmax [4]: 0.58 h; Tmax [5]: 0.58 h; Cmax [6]: 1630 ng/mL; Cmax [7]: 928 ng/mL; AUC(0-t) at 24 h [8]: 2920 ng·h/mL; AUC(0-inf) [10]: 2990 ng·h/mL; AUC ([11]; mouse, 24 h): 1110 ng·h/mL; MRT inf [12]: 1.9 h |
| COc1nc(OCc2cccc(-c3ccccc3)c2C)ccc1CNCCO[C@@H]1O[C@H](CO)[C@@H](O)[C@H](O)[C@H]1NC(C)=O | 2.09 | 6.36 | 2160 | 3.58 | 2.57 | 49.4 | Non-Toxic | 41.1 | 41.1 | 41.1 | Non-Toxic | Non-Toxic | Non-Toxic | 77.3 | Non-Toxic | 20.53 | 11.47 | 5.06 | Activity [28]: Active; IC50 [29]: 29.2 nM; half-life [30]: 7.02 h; Tmax [31]: 0.5 h; Cmax [32]: 31.7 ng/mL; AUC(0-t) at 24 h [33]: 337 ng·h/mL; AUC(0-inf) ([11]; CD-1, mouse): 2230 ng·h/mL; clearance [34]: 38.6 mL/min/kg; MRT inf [35]: 10.2 h; Vd [36]: 6.88 L/kg; Activity [37]: Active; inhibition [38]: Active; Activity [39]: Active; Activity [40]: Active; Activity [41]: Active; Activity [42]: Active; Activity [43]: Active; Activity [44]: Non-Toxic |
| Cc1c(COc2cc(OCc3cncc(C#N)c3)c(CN(CCCN(C)C)CCS(=O)(=O)O)cc2Cl)cccc1-c1ccc2c(c1)OCCO2 | – | – | – | – | – | – | – | – | – | – | – | – | – | – | – | – | – | – | IC50 [45]: 23.5 nM |
| Cc1cc(OCc2cccc(-c3ccccc3)c2C)cc(C)c1CNCCO | – | – | – | – | – | – | – | – | – | – | – | – | – | – | – | – | – | – | IC50 [46]: 4100 nM; inhibition [47]: 62.8% |
